# Results taken from article PMC6791878, “Evaluation of integrin αvβ6 cystine knot PET tracers to detect cancer and idiopathic pulmonary fibrosis” (Nature Communications, 2019).
# Like-named read-outs stand apart in the source and are kept apart here.
# Key:
# human integrin αvβ6 [1] = biological target: T1, human integrin αvβ6 (Homo sapiens, UniProt P06756+P18564, DEL708-788); parameters: method as in Kimura et al., Clin. Can. Res., 2012; settings: ref Kimura et al., Clin. Can. Res., 2012; cited from earlier work
# T1 construct: purchased R&D Systems
# human integrin αvβ6 [2] = biological target: T1, human integrin αvβ6; test: Equilibrium binding of yeast-displayed knottins to soluble integrin αvβ6 (two-colour flow cytometry, KD)
# T1 sequence (P06756 31-992 limits assumed, stated change not applied): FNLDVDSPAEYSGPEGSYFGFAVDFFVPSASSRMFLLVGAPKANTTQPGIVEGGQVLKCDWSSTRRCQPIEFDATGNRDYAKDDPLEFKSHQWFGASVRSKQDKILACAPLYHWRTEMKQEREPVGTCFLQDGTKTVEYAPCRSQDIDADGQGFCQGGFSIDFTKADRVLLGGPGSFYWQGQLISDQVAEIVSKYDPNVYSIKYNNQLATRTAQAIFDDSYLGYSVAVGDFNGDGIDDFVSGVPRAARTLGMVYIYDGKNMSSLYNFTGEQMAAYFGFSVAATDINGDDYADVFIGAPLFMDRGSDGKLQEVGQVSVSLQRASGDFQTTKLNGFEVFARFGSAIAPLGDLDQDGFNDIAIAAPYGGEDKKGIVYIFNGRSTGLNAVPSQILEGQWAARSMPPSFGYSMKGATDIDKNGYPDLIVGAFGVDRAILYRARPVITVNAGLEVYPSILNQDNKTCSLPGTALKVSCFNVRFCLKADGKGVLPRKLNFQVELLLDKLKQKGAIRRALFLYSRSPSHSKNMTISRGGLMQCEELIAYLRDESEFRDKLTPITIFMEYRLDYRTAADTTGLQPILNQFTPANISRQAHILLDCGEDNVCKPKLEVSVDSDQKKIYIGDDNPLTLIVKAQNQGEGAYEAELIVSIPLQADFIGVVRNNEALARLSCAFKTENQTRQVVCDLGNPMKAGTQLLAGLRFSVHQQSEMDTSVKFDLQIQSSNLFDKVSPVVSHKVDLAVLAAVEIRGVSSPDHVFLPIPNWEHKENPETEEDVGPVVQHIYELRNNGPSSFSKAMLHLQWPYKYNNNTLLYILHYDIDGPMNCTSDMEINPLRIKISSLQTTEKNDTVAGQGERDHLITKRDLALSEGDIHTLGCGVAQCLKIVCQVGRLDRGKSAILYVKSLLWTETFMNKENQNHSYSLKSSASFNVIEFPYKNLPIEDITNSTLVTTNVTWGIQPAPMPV
# T1 sequence (P18564 22-707 limits assumed, stated change not applied): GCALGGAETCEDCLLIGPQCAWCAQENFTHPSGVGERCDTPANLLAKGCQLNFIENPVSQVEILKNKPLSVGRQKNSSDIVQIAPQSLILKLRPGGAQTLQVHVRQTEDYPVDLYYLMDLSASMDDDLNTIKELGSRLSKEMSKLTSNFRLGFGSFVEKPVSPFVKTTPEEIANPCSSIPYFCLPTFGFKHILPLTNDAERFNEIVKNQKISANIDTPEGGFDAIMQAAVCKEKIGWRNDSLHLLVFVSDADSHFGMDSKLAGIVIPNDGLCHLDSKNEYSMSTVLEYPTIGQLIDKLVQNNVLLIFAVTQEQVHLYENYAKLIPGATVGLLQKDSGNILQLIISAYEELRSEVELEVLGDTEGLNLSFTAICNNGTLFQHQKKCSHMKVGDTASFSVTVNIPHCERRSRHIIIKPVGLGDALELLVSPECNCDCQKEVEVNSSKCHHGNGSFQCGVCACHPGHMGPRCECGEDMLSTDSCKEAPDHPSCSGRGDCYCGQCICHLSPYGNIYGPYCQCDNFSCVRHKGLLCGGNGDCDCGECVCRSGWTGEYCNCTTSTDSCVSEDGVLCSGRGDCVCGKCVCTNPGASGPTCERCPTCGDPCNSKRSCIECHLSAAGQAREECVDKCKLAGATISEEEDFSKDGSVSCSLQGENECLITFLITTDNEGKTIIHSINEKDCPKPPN
structure (smiles),measurement,setting,value
CC[C@H](C)[C@@H]1NC(=O)[C@@H](NC(=O)CN)CSSC[C@@H]2NC(=O)[C@H](C)NC(=O)CNC(=O)[C@@H]3CCCN3C(=O)[C@@H]3CSSC[C@@H](C(=O)NCC(N)=O)NC(=O)[C@H](Cc4ccc(O)cc4)NC(=O)CNC(=O)[C@H](CC(N)=O)NC(=O)CNC(=O)[C@H](CCCNC(=N)N)NC(=O)[C@H](CSSC[C@H](NC(=O)[C@H](CCCNC(=N)N)NC(=O)[C@H](Cc4ccccc4)NC(=O)[C@H](CC(C)C)NC(=O)[C@H](CC(C)C)NC(=O)[C@H]([C@@H](C)O)NC(=O)CNC(=O)[C@H](CC(C)C)NC(=O)[C@H](CC(=O)O)NC(=O)[C@H]([C@@H](C)O)NC(=O)[C@H](CCCNC(=N)N)NC(=O)[C@H](CCSC)NC(=O)[C@H](CC(N)=O)NC(=O)[C@H](CC(C)C)NC1=O)C(=O)N[C@@H](CCCNC(=N)N)C(=O)N[C@@H](CCCNC(=N)N)C(=O)N[C@@H](CC(=O)O)C(=O)N[C@@H](CO)C(=O)N[C@@H](CC(=O)O)C(=O)N3)NC(=O)[C@H]([C@@H](C)CC)NC2=O [R01],Kd,human integrin αvβ6 [1],~3 nM
same,Kd,human integrin αvβ6 [2],~1 nM
